Data: US11629171B2, “Beta-hairpin peptidomimetics” (POLYPHOR AG, priority 2017, dated 2023)
In brackets after ≈: the same amount, converted by molar mass. Where a SMILES comes first, the peptide text is derived from it. Bridges are numbered along the chain shown (N, C = ends). Roman numbers before positions name the chains, in order. [ ]: non-standard residue; d: D form. Hiv = CC(C)[C@H](O)C(=O)O; dDab = NCC[C@@H](N)C(=O)O; Dab = NCC[C@H](N)C(=O)O; Dap = NC[C@H](N)C(=O)O

Assays:
[1] = test system: Acinetobacter baumannii 872842; assay type: cell-based; conditions: 872842
Outline: (§1)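 MIC in μg/mL, read as absence of visible growth after 18-20 h incubation at 35° C, by standard CLSI microdilution. Peptides tested in two-fold serial dilution in cation-adjusted MH-II broth containing 0.002% (final) Polysorbate 80, against roughly 10^6 CFU/mL inocula.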

[2] = test system: Acinetobacter baumannii DSM 30008; assay type: cell-based; conditions: DSM 30008
Outline: as §1

[3] = test system: Enterobacter cloacae 848840; assay type: cell-based; conditions: 848840
Outline: as §1

[4] = test system: Escherichia coli 926415; assay type: cell-based; conditions: 926415
Outline: as §1

[5] = test system: Escherichia coli ATCC 25922; assay type: cell-based; conditions: ATCC 25922
Outline: as §1

[6] = test system: Klebsiella pneumoniae 968733; assay type: cell-based; conditions: 968733
Outline: as §1

[7] = test system: Klebsiella pneumoniae SSI #3010; assay type: cell-based; conditions: SSI #3010
Outline: as §1

[8] = test system: Pseudomonas aeruginosa ATCC 27853; assay type: cell-based; conditions: ATCC 27853
Outline: as §1

[9] = test system: human red blood cells (hRBC); assay: Hemolysis; assay type: cell-based; conditions: red cells of human, 1 h, 200
Outline: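 Hemoglobin release from PBS-washed hRBC at 20% (v/v), incubated 1 h at 37° C with peptides at 200 μg/mL, is measured at 540 nm. Values are blank corrected and given as a fraction of Triton X-100 lysis × 100%.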

[10] = test system: male ICR mice; assay: Tolerability in a mouse model (Maximum Tolerated Dose assay); assay type: in vivo; conditions: 2 × 40 mg/kg s.c. at a 12-hr interval, groups of 3
Outline: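 Groups of 3 male ICR mice weighing 23±3 g received two subcutaneous doses, 12 h apart, of 30 or 40 mg/kg in saline adjusted to pH 6.5-7.6. Observation for 30 min after each dose covered autonomic effects and acute toxicity, including death.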

Row | SMILES | MIC [1] | MIC [2] | MIC [3] | MIC [4] | MIC [5] | MIC [6] | MIC [7] | MIC [8] | Hemolysis at 200 μg/mL [9] | Mortality and dose [10]
1 | CC(C)C[C@@H]1NC(=O)[C@@H](CC(C)C)NC(=O)[C@H](CCN)NC(=O)[C@@H](NC(=O)[C@H](CN)NC(=O)[C@@H](NC(=O)[C@H](CCN)NC(=O)CC[C@@H]2NC(=O)[C@H](CO)NC(=O)[C@H](Cc3ccc(O)cc3)NC(=O)[C@@H](NC(=O)[C@@H](O)C(C)C)CSSC[C@@H](C(=O)N[C@@H](CO)C(N)=O)NC(=O)[C@H](C(C)C)NC(=O)[C@H](CO)NC(=O)[C@H](Cc3c[nH]c4ccccc34)NC(=O)[C@H](CCN)NC(=O)[C@@H](CCN)NC2=O)[C@@H](C)O)CCNC(=O)[C@H]([C@@H](C)O)NC(=O)[C@H](CCN)NC(=O)[C@H](CCN)NC1=O [Ex. 270] (I: H-[Hiv]CYSE[dDab][Dab]WSVCS-NH2 / II: [Dab]T[Dap][Dab][Dab][dL]L[Dab][Dab]T; disulfide I:2-I:11; amide I:5-II:N; lactam II:4-II:C) | 0.0625 µg/mL (≈ 0.0265 µM) | 0.0625 µg/mL (≈ 0.0265 µM) | 0.25 µg/mL (≈ 0.106 µM) | 0.125 µg/mL (≈ 0.053 µM) | 0.0625 µg/mL (≈ 0.0265 µM) | 0.125 µg/mL (≈ 0.053 µM) | 0.0625 µg/mL (≈ 0.0265 µM) | 0.125 µg/mL (≈ 0.053 µM) | <1% | 0/3 died at 2 × 40 mg/kg
2 | CC(=O)N[C@H](C(=O)N[C@H]1CSSC[C@@H](C(=O)N[C@@H](CO)C(N)=O)NC(=O)[C@H](C(C)C)NC(=O)[C@H](CCN)NC(=O)[C@H](Cc2c[nH]c3ccccc23)NC(=O)[C@H](CO)NC(=O)[C@@H](CO)NC(=O)[C@H](CCC(=O)N[C@@H](CCN)C(=O)N[C@H](C(=O)N[C@@H](CN)C(=O)N[C@H]2CCNC(=O)[C@H]([C@@H](C)O)NC(=O)[C@H](CCN)NC(=O)[C@H](CCN)NC(=O)[C@H](CC(C)C)NC(=O)[C@@H](CC(C)C)NC(=O)[C@H](CCN)NC2=O)[C@@H](C)O)NC(=O)[C@H](CCN)NC(=O)[C@H](Cc2ccc(O)cc2)NC1=O)C(C)C [Ex. 296] (I: Ac-VCY[Dab]E[dS]SW[Dab]VCS-NH2 / II: [Dab]T[Dap][Dab][Dab][dL]L[Dab][Dab]T; disulfide I:2-I:11; amide I:5-II:N; lactam II:4-II:C) | 0.25 µg/mL (≈ 0.104 µM) | 0.125 µg/mL (≈ 0.0521 µM) | 0.5 µg/mL (≈ 0.208 µM) | 0.5 µg/mL (≈ 0.208 µM) | 0.125 µg/mL (≈ 0.0521 µM) | 4 µg/mL (≈ 1.67 µM) | 0.0625 µg/mL (≈ 0.0261 µM) | 0.25 µg/mL (≈ 0.104 µM) | <1% | 0/3 died at 2 × 40 mg/kg
3 | CC(=O)N[C@H](C(=O)N[C@H]1CSSC[C@@H](C(=O)N[C@@H](CO)C(N)=O)NC(=O)[C@H](C(C)C)NC(=O)[C@H](CO)NC(=O)[C@H](Cc2c[nH]c3ccccc23)NC(=O)[C@H](CCN)NC(=O)[C@@H](CO)NC(=O)[C@H](CCC(=O)N[C@@H](CCN)C(=O)N[C@H](C(=O)N[C@@H](CN)C(=O)N[C@H]2CCNC(=O)[C@H]([C@@H](C)O)NC(=O)[C@H](CCN)NC(=O)[C@H](CCN)NC(=O)[C@H](CC(C)C)NC(=O)[C@@H](CC(C)C)NC(=O)[C@H](CCN)NC2=O)[C@@H](C)O)NC(=O)[C@H](CCN)NC(=O)[C@H](Cc2ccc(O)cc2)NC1=O)C(C)C [Ex. 297] (I: Ac-VCY[Dab]E[dS][Dab]WSVCS-NH2 / II: [Dab]T[Dap][Dab][Dab][dL]L[Dab][Dab]T; disulfide I:2-I:11; amide I:5-II:N; lactam II:4-II:C) | 0.0625 µg/mL (≈ 0.0261 µM) | 0.03125 µg/mL (≈ 0.013 µM) | 0.125 µg/mL (≈ 0.0521 µM) | 0.125 µg/mL (≈ 0.0521 µM) | 0.03125 µg/mL (≈ 0.013 µM) | 0.125 µg/mL (≈ 0.0521 µM) | 0.0625 µg/mL (≈ 0.0261 µM) | 0.125 µg/mL (≈ 0.0521 µM) | <1% | 0/3 died at 2 × 40 mg/kg
